In PubChem BioAssay AID1963826 (Molecular Pharmacology Branch, DTP, NCI, 2024):

Test system: 926638-142-R-J1-PDC complex spheroid viability
Test: Anticancer human tumor 926638-142-R-J1-PDC patient-derived endometrial carcinoma cell line growth inhibition [POLQ]
Settings: for IC50: curve of first compound; for viability, T/C: stronger effect = lower value
Summary of the method: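 Patient-derived tumour cells were co-cultured with HUVEC and mesenchymal stem cells as multicellular spheroids at 37 °C. They were treated with POLQ inhibitors (novobiocin, ART-558, RP6685) alone or combined with other agents. Top concentrations were at or near clinical Cmax (otherwise 10 microM; SN-38 at 1 microM), decreasing in half-log steps.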
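Also: spheroids exposed to drugs for one week before readout.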
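For viability, T/C in this document: percent viability relative to DMSO vehicle control wells set as 100%.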

For `CC1COCCN1c1cc(C2(S(C)(=N)=O)CC2)nc(-c2ccnc3[nH]ccc23)n1` (configuration not stated) + COC1C(OC(N)=O)C(O)C(Oc2ccc3c(O)c(NC(=O)c4ccc(O)c(CC=C(C)C)c4)c(=O)oc3c2C)OC1(C)C, which IC50 (second compound 0.0316 µM) is on record?
The IC50 was 5.67 µM.

And the IC50 (second compound 0.1 µM)?
Its IC50 is 7.87 µM.

And the IC50 (second compound 0.316 µM)?
Its IC50 is 6.15 µM.

And the IC50 (second compound 1 µM)?
Its IC50 is 5.99 µM.

And the IC50 (second compound 3.16 µM)?
Its IC50 is 5.86 µM.

And the IC50 (second compound 10 µM)?
The IC50 was 5.68 µM.

And the viability, T/C (second compound 0.0316 µM, first compound 0.0316 µM)?
The viability, T/C was 119%.

What about the viability, T/C (second compound 0.0316 µM, first compound 0.1 µM) of the same molecule?
Its viability, T/C is 99.4%.

What about the viability, T/C (second compound 0.0316 µM, first compound 0.316 µM) of the same molecule?
The viability, T/C was 110%.

What about the viability, T/C (second compound 0.0316 µM, first compound 1 µM) of the same molecule?
Its viability, T/C is 88.1%.

What about the viability, T/C (second compound 0.0316 µM, first compound 3.16 µM) of the same molecule?
Its viability, T/C is 64.9%.

And the viability, T/C (second compound 0.0316 µM, first compound 10 µM)?
The viability, T/C was 35.5%.

And the viability, T/C (second compound 0.1 µM, first compound 0.0316 µM)?
The viability, T/C was 96%.

What about the viability, T/C (second compound 0.1 µM, first compound 0.1 µM) of the same molecule?
The viability, T/C was 107%.

What about the viability, T/C (second compound 0.1 µM, first compound 0.316 µM) of the same molecule?
The viability, T/C was 109%.

What about the viability, T/C (second compound 0.1 µM, first compound 1 µM) of the same molecule?
Its viability, T/C is 82.7%.

And the viability, T/C (second compound 0.1 µM, first compound 3.16 µM)?
Its viability, T/C is 71%.

What about the viability, T/C (second compound 0.1 µM, first compound 10 µM) of the same molecule?
The viability, T/C was 44.5%.

What about the viability, T/C (second compound 0.316 µM, first compound 0.0316 µM) of the same molecule?
Its viability, T/C is 107%.

What about the viability, T/C (second compound 0.316 µM, first compound 0.1 µM) of the same molecule?
Its viability, T/C is 98%.

What about the viability, T/C (second compound 0.316 µM, first compound 0.316 µM) of the same molecule?
The viability, T/C was 115%.

What about the viability, T/C (second compound 0.316 µM, first compound 1 µM) of the same molecule?
Its viability, T/C is 83.1%.

And the viability, T/C (second compound 0.316 µM, first compound 3.16 µM)?
Its viability, T/C is 77.2%.

And the viability, T/C (second compound 0.316 µM, first compound 10 µM)?
Its viability, T/C is 31.9%.

And the viability, T/C (second compound 1 µM, first compound 0.0316 µM)?
Its viability, T/C is 121%.

And the viability, T/C (second compound 1 µM, first compound 0.1 µM)?
The viability, T/C was 101%.

And the viability, T/C (second compound 1 µM, first compound 0.316 µM)?
Its viability, T/C is 94%.

And the viability, T/C (second compound 1 µM, first compound 1 µM)?
The viability, T/C was 84.4%.

And the viability, T/C (second compound 1 µM, first compound 3.16 µM)?
The viability, T/C was 77.2%.

What about the viability, T/C (second compound 1 µM, first compound 10 µM) of the same molecule?
Its viability, T/C is 31.8%.

What about the viability, T/C (second compound 3.16 µM, first compound 0.0316 µM) of the same molecule?
The viability, T/C was 93.1%.

And the viability, T/C (second compound 3.16 µM, first compound 0.1 µM)?
Its viability, T/C is 106%.

What about the viability, T/C (second compound 3.16 µM, first compound 0.316 µM) of the same molecule?
The viability, T/C was 114%.

What about the viability, T/C (second compound 3.16 µM, first compound 1 µM) of the same molecule?
The viability, T/C was 99.3%.

What about the viability, T/C (second compound 3.16 µM, first compound 3.16 µM) of the same molecule?
Its viability, T/C is 70.4%.

And the viability, T/C (second compound 3.16 µM, first compound 10 µM)?
Its viability, T/C is 32.4%.

And the viability, T/C (second compound 10 µM, first compound 0.0316 µM)?
The viability, T/C was 97.6%.

And the viability, T/C (second compound 10 µM, first compound 0.1 µM)?
The viability, T/C was 91.4%.

And the viability, T/C (second compound 10 µM, first compound 0.316 µM)?
The viability, T/C was 100%.

And the viability, T/C (second compound 10 µM, first compound 1 µM)?
Its viability, T/C is 89.2%.

And the viability, T/C (second compound 10 µM, first compound 3.16 µM)?
Its viability, T/C is 71.1%.

What about the viability, T/C (second compound 10 µM, first compound 10 µM) of the same molecule?
The viability, T/C was 29.8%.
